Patent US12577235B2, “Crystalline form of CXCR2 antagonist and application thereof” (Shenzhen Optimum Biological Technology Co., Ltd, priority 2019, dated 2026)

Legend:
[1] = Stability assay of solid crystalline form A at high temperature, high humidity, high temperature and high humidity, and illumination; assay type: physicochemical; conditions: for Stability and druggability (conclusion in words): solid state stress conditions
Description: The samples were placed in conditions of high temperature (60° C.), high humidity (92.5% humidity, 25° C.), high temperature and high humidity (60° C./75% humidity), and under illumination (including in the dark as control) for stability assay. For samples in a 60° C./75% thermostatic incubator and a 92.5% RH desiccator, the vials were sealed using films. On the films 5 small holes were provided to ensure that the sample was in sufficient contact with atmospheric air. For samples at 60° C., under illumination and in the dark, the vials were tightly capped (for the sample in the dark the vial was wrapped with tin foil). The samples were tested on day 10 for high humidity (92.5% humidity) condition, on days 5 and 10 for high temperature (60° C.) condition, on days 10 and 30 for high temperature and high humidity (60° C./75% humidity) condition, and on day 10 for illumination condition.

[2] = Crystalline form stability assay of crystalline form A - solvent water activity; assay type: physicochemical; conditions: for Crystalline form (XRPD): 20° C., 4 days
Description: The solutions were centrifuged to give precipitates, and the precipitates were dried under vacuum at 50° C. and subjected to XRPD.

CXCR2 = biological target: T1, CXCR2 (Homo sapiens, UniProt P25025); assay: PathHunter CXCR2 β-arrestin cell assay (CXCL8 agonist, chemiluminescence); assay type: cell-based; conditions: listed as crystalline form A of the compound 1
T1 sequence (P25025 1-360): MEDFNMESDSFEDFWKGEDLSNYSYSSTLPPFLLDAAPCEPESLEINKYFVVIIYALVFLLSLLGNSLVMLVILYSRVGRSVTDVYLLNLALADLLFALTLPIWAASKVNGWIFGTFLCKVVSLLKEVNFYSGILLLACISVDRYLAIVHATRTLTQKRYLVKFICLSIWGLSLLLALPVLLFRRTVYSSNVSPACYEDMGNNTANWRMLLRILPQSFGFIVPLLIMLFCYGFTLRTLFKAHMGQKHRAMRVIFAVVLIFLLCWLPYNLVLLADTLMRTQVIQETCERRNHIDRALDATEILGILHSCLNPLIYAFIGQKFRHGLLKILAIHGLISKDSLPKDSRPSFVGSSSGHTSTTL
Description: CXCR2 β-arrestin cells (DiscoverX) of PathHunter® were cultured in standard conditions and inoculated at 20 μL/well to a 384-well white microplate. Before testing, the cells were incubated at 37° C. for an appropriate period of time. The test compound was serially 3-fold diluted in DMSO to give 8 concentrations. Shortly before testing, the serially diluted test samples were further diluted with test buffer to 5 folds of the test concentration. 5 μL of further diluted test samples were added to the cells and the cells were incubated at 37° C. for 30 min. The concentration of vehicle was 1%. 5 μL of 6×EC80 agonist (CXCL8) buffer was then added to the cells, and the cells were incubated at 37° C. for 90 min. The test signal was generated by adding 15 μL (50% v/v) of PathHunter detection mixture reagent in one portion and subsequently incubating the cells for 1 h. The chemiluminescence signal of the microplate was read by a PerkinElmer Envision™ instrument. The biological activities of the test compounds were analyzed by CBIS data analysis kit (ChemInnovation, CA), shown as IC50 values.

[3] = high humidity (92.5% humidity, 25° C.), day 0
[4] = high humidity (92.5% humidity, 25° C.), day 10
[5] = high temperature (60° C.), day 0
[6] = high temperature (60° C.), day 5
[7] = high temperature (60° C.), day 10
[8] = in the dark for 10 days (control)

With `O=C(Nc1ccc(Cl)c(S(=O)(=O)[C@H]2CCCNC2)c1O)N[C@@H]1CCCc2cc(C(F)(F)F)oc21` [crystalline form A] the Appearance ([1]; 60° C./75% humidity, day 0) was “White powder”, the Crystalline form ([1]; 60° C./75% humidity, day 0) was “Crystalline” and the Appearance ([1]; 60° C./75% humidity, day 10) was “White powder”. For the same molecule, the Crystalline form ([1]; 60° C./75% humidity, day 10) was “Crystalline”, the Appearance ([1]; 60° C./75% humidity, day 30) was “White powder” and the Crystalline form ([1]; 60° C./75% humidity, day 30) was “Crystalline”. For the same molecule, the Appearance [1, 3] was “White powder”, the Crystalline form [1, 3] was “Crystalline” and the Appearance [1, 4] was “White powder”. For the same molecule, the Crystalline form [1, 4] was “Crystalline”, the Appearance [1, 5] was “White powder” and the Crystalline form [1, 5] was “Crystalline”. The Appearance [1, 6] was “White powder”, the Crystalline form [1, 6] was “Crystalline” and the Appearance [1, 7] was “White powder”. The Crystalline form [1, 7] was “Crystalline”, the Appearance [1, 8] was “White” and the Crystalline form [1, 8] was “Crystalline”. The “Stability and druggability (conclusion in words)” value ([1]; listed as crystalline form A of compound 1) was “good stability and druggability”, the “Stability and druggability (conclusion in words)” value ([1]; listed as crystalline form A of the compound 1) was “good stability and desirable druggability” and the Appearance ([1]; under illumination for 10 days) was “White”. For the same molecule, the Crystalline form ([1]; under illumination for 10 days) was “Crystalline”, the “Stability of the crystalline form in solvents (in words)” value ([2]; methanol, ethanol, methanol/water, water) was “stable in the above solvents” and the “Crystalline form (XRPD)” value ([2]; stirred in ethanol, 100 mg/mL) was “Crystalline form A”. For the same molecule, the “Crystalline form (XRPD)” value ([2]; stirred in methanol, 100 mg/mL) was “Crystalline form A”, the “Crystalline form (XRPD)” value ([2]; stirred in methanol/water = 1/1.5, 100 mg/mL) was “Crystalline form A” and the “Crystalline form (XRPD)” value ([2]; stirred in water, 100 mg/mL) was “Crystalline form A”. For the same molecule, the “Antagonism against the CXCR2 receptor (in words)” value (CXCR2) was “significant inhibitory effect”.
